Test results as given in ChEMBL document CHEMBL1201862, “PubChem BioAssay data set” (2004).
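Cultured in 96-well plates, cells were exposed to test compound for 48 hours across five concentrations. GI50 = concentration required for 50% inhibition of growth.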 The source made the active and inactive calls. No stated cut-off is given here; in the data, active = GI50 up to about 1.1 µM and inactive = higher.

What was measured:
Test in all cases: NCI tumour cell line growth inhibition, 48 h
[1] = tested on: MOLT-4
[2] = tested on: UACC-62
[3] = tested on: Hs-578T
[4] = tested on: CCRF-CEM
[5] = tested on: TK-10
[6] = tested on: SNB-75
[7] = tested on: MDA-MB-231
[8] = tested on: SF-539
[9] = tested on: SN12C
[10] = tested on: HCT-116
[11] = tested on: HCC 2998
[12] = tested on: UO-31
[13] = tested on: OVCAR-4
[14] = tested on: EKVX
[15] = tested on: MDA-MB-435
[16] = tested on: ACHN
[17] = tested on: HT-29
[18] = tested on: NCI-H23
[19] = tested on: OVCAR-3
[20] = tested on: A498

Compound	GI50 [1]	GI50 [2]	GI50 [3]	GI50 [4]	GI50 [5]	GI50 [6]	GI50 [7]	GI50 [8]	GI50 [9]	GI50 [10]	GI50 [11]	GI50 [12]	GI50 [13]	GI50 [14]	GI50 [15]	GI50 [16]	GI50 [17]	GI50 [18]	GI50 [19]	GI50 [20]
COc1ccc(C(=O)/C=C/c2ccc(OCCSCCCCCCCCCCSCCOc3ccc(/C=C/C(=O)c4ccc(OC)cc4)cc3)cc2)cc1	> 100 µM (inactive)	> 100 µM (inactive)	> 100 µM (inactive)	> 100 µM (inactive)	> 100 µM (inactive)	> 100 µM (inactive)	> 100 µM (inactive)	> 100 µM (inactive)	> 100 µM (inactive)	> 100 µM (inactive)	> 100 µM (inactive)	> 100 µM (inactive)	> 100 µM (inactive)	> 100 µM (inactive)	> 100 µM (inactive)	> 100 µM (inactive)	> 100 µM (inactive)	–	–	–
COc1cc(/C=C/C=C2\CCC/C(=C\C=C\c3ccc(O)c(OC)c3)C2=O)ccc1O	1.01 µM (active)	7.55 µM (inactive)	19.5 µM (inactive)	0.991 µM (active)	8.34 µM (inactive)	26.7 µM (inactive)	39.1 µM (inactive)	17.5 µM (inactive)	17.3 µM (inactive)	10.5 µM (inactive)	13.2 µM (inactive)	12 µM (inactive)	6.27 µM (inactive)	7.36 µM (inactive)	9.57 µM (inactive)	4.08 µM (inactive)	6.04 µM (inactive)	11.7 µM (inactive)	9.12 µM (inactive)	–
C[C@]12CC[C@H]3[C@@H](CC=C4C[C@@H](N5CCCC5)CC[C@@]43C)[C@@H]1C/C(=C\c1ccc([N+](=O)[O-])cc1)[C@@H]2O	0.942 µM (active)	15.8 µM (inactive)	18.5 µM (inactive)	3.21 µM (inactive)	17.5 µM (inactive)	–	16.2 µM (inactive)	15.4 µM (inactive)	14.4 µM (inactive)	16.3 µM (inactive)	–	15.1 µM (inactive)	12.1 µM (inactive)	–	16.9 µM (inactive)	15.9 µM (inactive)	13.2 µM (inactive)	19.7 µM (inactive)	17 µM (inactive)	15.3 µM (inactive)
CCC(=O)OCc1ccc2oc(=O)c(C(=O)Oc3cncc(Cl)c3)cc2c1	30 µM (inactive)	52.1 µM (inactive)	> 100 µM (inactive)	< 0.01 µM (active)	97.5 µM (inactive)	79.8 µM (inactive)	> 100 µM (inactive)	> 100 µM (inactive)	42.7 µM (inactive)	80 µM (inactive)	35.6 µM (inactive)	83.8 µM (inactive)	> 100 µM (inactive)	> 100 µM (inactive)	70 µM (inactive)	> 100 µM (inactive)	76 µM (inactive)	52.2 µM (inactive)	> 100 µM (inactive)	–
O=C1NC(N2CCOCC2)=N/C1=C\c1ccc(Cl)cc1	> 100 µM (inactive)	> 100 µM (inactive)	> 100 µM (inactive)	> 100 µM (inactive)	> 100 µM (inactive)	60.8 µM (inactive)	> 100 µM (inactive)	> 100 µM (inactive)	> 100 µM (inactive)	> 100 µM (inactive)	> 100 µM (inactive)	> 100 µM (inactive)	> 100 µM (inactive)	> 100 µM (inactive)	> 100 µM (inactive)	> 100 µM (inactive)	> 100 µM (inactive)	> 100 µM (inactive)	> 100 µM (inactive)	–
O=C(Cn1c(=O)ccn(C2OC(CO)C(O)C2F)c1=O)c1ccc(F)cc1 (stereo not given)	> 100 µM (inactive)	> 100 µM (inactive)	> 100 µM (inactive)	> 100 µM (inactive)	> 100 µM (inactive)	82.2 µM (inactive)	> 100 µM (inactive)	> 100 µM (inactive)	> 100 µM (inactive)	> 100 µM (inactive)	–	> 100 µM (inactive)	–	> 100 µM (inactive)	> 100 µM (inactive)	> 100 µM (inactive)	> 100 µM (inactive)	> 100 µM (inactive)	> 100 µM (inactive)	–
O=C1NC(=O)C(c2c[nH]c3cc(Br)ccc23)=C1c1cnc[nH]1	23.9 µM (inactive)	–	52.7 µM (inactive)	34.8 µM (inactive)	34.9 µM (inactive)	> 100 µM (inactive)	27.9 µM (inactive)	21.9 µM (inactive)	53.3 µM (inactive)	25.8 µM (inactive)	–	17.7 µM (inactive)	32.1 µM (inactive)	23.4 µM (inactive)	25.1 µM (inactive)	43.7 µM (inactive)	26.2 µM (inactive)	–	12.3 µM (inactive)	14.5 µM (inactive)
